The target of one data set is cytidine deaminase (CDA) (Homo sapiens, UniProt P32320). The settings on record: cited from earlier work.
Data set [1] deals with advanced malignant tumors. Put plainly: Efficacy in subjects with advanced malignant tumors. The format is in vivo, human. The settings on record: 48 subjects enrolled. How it is done: The efficacy, safety and tolerability of RX-3117 at various doses and frequencies were evaluated (see Example 4, above). Subjects with advanced malignant tumors were administered capsules containing RX-3117 at various doses, from TIWK to 7 times per week for 3 weeks with 1 week off during each 4-week cycle. Dose escalation begins with an accelerated design treating 1 subject per dose (Simon et al., J. Natl. Cancer Inst., 89(15):1138-47 (1997) followed by a standard 3+3 design using a modified Fibonacci sequence after the occurrence of a single related Grade 2 or greater adverse event. Table 4 (above) summarizes the dosing schedule.

Data set [2] deals with SW1573/G-. Put plainly: Clonogenic assay, radiosensitizing effect. The format is cell-based, human. The settings on record: 1 μM pre-incubation 24 h, irradiation. How it is done: (§1) Exponential growing A2780, SW1573, A549, H460 and SW1573/G-cells were exposed to 1 μM RX-3117 or untreated (control) for 24 h and irradiated with single doses γ-radiation (0-6 Gy) using a ^60Co source (Gammacell 200, Atomic Energy of Canada, Ltd). Subsequently, 500 cells/T25 flasks were plated and allowed to form colonies. After ten days colonies were fixed with 100% ethanol and stained with 10% Giemsa stain solution (Merck Chemicals BV, Amsterdam, the Netherlands) for colonies counting. Plating efficiency (PE) was calculated by dividing the number of colonies formed through the number of cells plated and normalized for cytotoxicity induced by control. To illustrate the effect of RX-3117 on radiation, dose modifying factor (DMF) was calculated as described earlier (Bijnsdorp I V, van den Berg J, Kuipers G K, Wedekind L E, Slotman B J, van Rijn J, Lafleur M V M and Sminia P: Radiosensitizing potential of the selective cyclooygenase-2 (COX-2) inhibitor meloxicam on human glioma cells. J Neurooncol 85: 25-31, 2007).

The subject of another data set is A549. Put plainly: Clonogenic assay, radiosensitizing effect. The format is cell-based, human. The settings on record: A549, 1 μM pre-incubation 24 h, irradiation 0-6 Gy. The method, then:
as §1

For a further data set, the system named is A2780. Briefly: Clonogenic assay, radiosensitizing effect. The format is cell-based, human. How it is done: as §1
Data set [3] deals with SW1573. Put plainly: Clonogenic assay, radiosensitizing effect. The format is cell-based, human. How it is done: as §1
The subject of the next data set is H460. Put plainly: Clonogenic assay, radiosensitizing effect. Particulars: H460, 1 μM pre-incubation 24 h, irradiation. The format is cell-based, human. How it is done:
as §1

Data set [4] concerns SW1573/G-. Briefly: Cell cycle distribution by flow cytometry (PI). The format is cell-based, human. How it is done:
The effect of RX-3117 on cell cycle regulation and cell death in human non-small cell lung cancer (NSCLC) cell lines A549 (adenocarcinoma), SW1573 (alveolar carcinoma) and SW1573/G- (SW1573 cell line resistant to gemcitabine) and H460 (large cell carcinoma) was assessed. The A549 and H460 cell lines were obtained from American Type Culture Collection (Manassas, Va., USA). The SW1573 cell line, obtained from Dr. Johan van Rijn (see Keiser et al., Cancer Research, 49:2988-2993 (1989)), also served as the parental cell line for SW1573/G-. A549, SW1573, and SW1573/G- and H460 were kept in exponential growth in T25 flasks (Greiner Bio-One GmbH, Frickenhausen, Germany) and cultured in Dulbecco's minimal essential medium (DMEM) or RPMI 1640 (A549) supplemented with 10% heat-inactivated fetal bovine serum (FBS) 1% streptomycin and penicillin 20 mM HEPES and maintained in 37° C. water saturated atmospheres of 5% CO2. […] The cells stained with the PI solution were analyzed by FACSCalibur™ (BD Biosciences, Mount View, Calif., USA). Data was analyzed with CellQuest™ Pro software.
Cell cycle distribution and apoptosis were analyzed by plating cells in flat bottom 6 well plates (Greiner Bio-One GmbH, Frickenhausen, Germany) at the density of 5,000 cells and allowed to attach for 24 h. […] Subsequently, samples were analyzed using FACSCalibur (BD Biosciences, Mount View, Calif., USA). […]
On the technique in general: Flow cytometry measures light scatter and fluorescence of single cells or particles in a stream.

For data set [5], the system named is SW1573. The settings on record: as reported in Peters et al. 2013; cited from earlier work.

cytidine deaminase (CDA), sequence (P32320 whole entry, species assumed): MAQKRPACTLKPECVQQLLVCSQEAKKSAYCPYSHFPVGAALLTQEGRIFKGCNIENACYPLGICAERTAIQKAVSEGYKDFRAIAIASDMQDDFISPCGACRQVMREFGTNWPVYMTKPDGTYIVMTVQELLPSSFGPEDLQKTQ

`Nc1ccn([C@@H]2C(F)=C(CO)[C@@H](O)[C@H]2O)c(=O)n1` [RX-3117, 4-amino-1-((1S,4R,5S)-2-fluoro-4,5-dihydroxy-3-hydroxymethyl-cyclopent-2-enyl)-1H-pyrimidin-2-one]: the “substrate for cytidine deaminase (CDA)” value on cytidine deaminase (CDA) (Peters et al. 2013) is on record as “poor substrate”. In addition, on cytidine deaminase (CDA) (compared with gemcitabine), the rate of deamination result is recorded as “much slower than gemcitabine”. Also, in data set [1] (various oral doses and frequencies), the “subjects with stable disease for 1 to 10 cycles” value is “Seventeen”. Moreover, in data set [1] (pancreatic, breast and mesothelioma cancers), the “subjects with tumor burden reduction” value turned out to be 3 subjects. For the same compound, the “dose modifying factor (DMF)” value with SW1573/G- [2] was 1.4; with A549, 1.8; in the data set on A2780 (A2780, 1 μM pre-incubation 24 h, irradiation 0-6 Gy) it was 1.8; with SW1573 [3] (SW1573, 5 μM (FIG. 16 legend) pre-incubation 24 h, irradiation), 1.5. The “plating efficiency compared to control” value in the data set with A2780 (A2780, pre-incubation 1 μM 24 h, 4 Gy) is “five times lower”. Besides, the “colonies outgrowth, fractionated radio therapy” value in the data set with SW1573 [3] (SW1573, 1 μM prior to 5 times 2 Gy) is listed as “lowest colonies outgrowth”. Besides, in the data set with H460, the radiosensitizing effect result is “poor radiosensitizing effect”. The “accumulation of cells in the G1 phase” value in the data set on SW1573/G- [4] (1 μM, 24 hour exposure) is recorded as “induced accumulation”. The “accumulation of cells in the S-phase” value in the data set with SW1573/G- [4] (5×IC50, 24 and 48 hours) is “induced the accumulation”. The IC50 (usually the midpoint of a concentration-inhibition curve) in the data set with SW1573 [5] is 13.7 µM.

Source of the values: patent US10278971B2, “Fluorocyclopentenylcytosine methods of use” (Rexahn Pharmaceuticals, Inc., priority 2015, dated 2019).
